Data from a flash point compilation (Sun et al. 2020).
Where a name gives a salt, the structure may show the parent alone.

Row | flash point [°C] | SMILES
1 | 20.00 | C[Si](C)(Cl)CCC(F)(F)F [Chlorodimethyl(3,3,3-trifluoropropyl) silane]
2 | 146.00 | Clc1cccc([Si](Cl)(Cl)Cl)c1Cl [Trichloro(dichlorophenyl)silane]
3 | -35.00 | C[Si](C)(C)F [Trimethylfluorosilane]
4 | -28.00 | C[SiH](C)Cl [Dimethylchlorosilane]
5 | 0.00 | C=CCO[Si](C)(C)C [Allyloxytrimethylsilane]
6 | 29.00 | C[Si](C)(C)C1C=CC=C1 [Cyclopentadienyltrimethylsilane]
7 | 27.00 | CN([Si](C)(C)C)[Si](C)(C)C [Heptamethyldisilazane]
8 | 80.00 | C=C[Si](OCCOC)(OCCOC)OCCOC [Vinyltris(methoxyethoxy)silane]
9 | 27.00 | C#CCO[Si](C)(C)C [Propargyloxytrimethylsilane]
10 | 96.00 | CCCCCCCC[Si](Cl)(Cl)Cl [n-Octyltrichlorosilane]
11 | -4.00 | CC[Si](C)(C)Cl [ETHYLDIMETHYLCHLOROSILANE]
12 | -22.00 | C[SiH](C)O[SiH](C)C [1,1,3,3-Tetramethyldisiloxane]
13 | 62.00 | C[Si](C)(C)Cc1ccccc1 [Benzyltrimethylsilane]
14 | 49.00 | C[Si](C)(C)c1ccc(Cl)cc1 [p-Chlorophenyltrimethylsilane]
15 | 34.00 | C=C[Si](OCC)(OCC)OCC [Vinyltriethoxysilane]
16 | 15.00 | FC(F)(F)CC[Si](Cl)(Cl)Cl [Trichloro(3,3,3-trifluoropropyl)silane]
17 | 75.00 | CO[Si](CCCCl)(OC)OC [3-Chloropropyltrimethoxysilane]
18 | 42.00 | CCCCCC#C[Si](C)(C)C [1-Heptynyltrimethylsilane]
19 | -19.00 | C[SiH](C)O[Si](C)(C)C [Pentamethyldisiloxane]
20 | 43.00 | Cl[SiH](Cl)C1CCCC1 [Cyclopentyldichlorosilane]
21 | 32.00 | C[Si]1(C)O[Si](C)(C)O[Si](C)(C)O1 [Hexamethylcyclotrisiloxane]
22 | -3.00 | C[Si](C)(C)Br [Trimethyl bromosilane]
23 | 95.00 | CCCO[Si](OCCC)(OCCC)OCCC [Tetra-n-propoxysilane]
24 | 85.00 | Cl[Si](Cl)(Cl)C1CCCCC1 [Cyclohexyltrichlorosilane]

Row | flash point [°C] | SMILES
25 | 77.00 | C[Si]1(C)O[Si](C)(C)O[Si](C)(C)O[Si](C)(C)O[Si](C)(C)O1 [Decamethylcyclopentasiloxane]
26 | 35.00 | CCN(CC)[Si](C)(C)N(CC)CC [Bis(diethylamino)dimethylsilane]
27 | 97.00 | CCCCCCCC[Si](C)(C)Cl [n-Octyldimethylchlorosilane]
28 | 37.00 | CC(C)C[Si](Cl)(Cl)Cl [Isobutyltrichlorosilane]
29 | -5.00 | F[Si](F)(F)c1ccccc1 [Phenyl trifluorosilane]
30 | 60.00 | C[Si](Cl)(Cl)CCC#N [2-Cyanoethylmethyldichlorosilane]
31 | 30.00 | CCCC(C)[Si](Cl)(Cl)Cl (stereo not drawn) [sec-Amyltrichlorosilane]
32 | 86.00 | CCO[Si](CCC#N)(OCC)OCC [2-Cyanoethyltriethoxysilane]
33 | 37.00 | CC(C)[SiH](C(C)C)C(C)C [Triisopropylsilane]
34 | 43.00 | C=C(CCl)C[Si](C)(C)C [2-Chloromethyl-3-trimethylsilyl-1-propene]
35 | 120.00 | CCO[Si](OCC)(OCC)c1ccccc1 [Phenyltriethoxysilane]
36 | 26.00 | C[Si](C)(C)C1C=CCC1 (stereo not drawn) [3-(Trimethylsilyl)cyclopentene]
37 | 25.00 | C=CC=CO[Si](C)(C)C [1-(Trimethylsiloxy)-1,3-butadiene]
38 | 22.00 | CC(C)(C)[Si](C)(C)Cl [t-Butyldimethylchlorosilane]
39 | 21.00 | CC(C)(C)[Si](Cl)(Cl)Cl [t-Butyltrichlorosilane]
40 | 154.00 | CCCCCCCCCCCCCCCC[Si](Cl)(Cl)Cl [Hexadecyltrichlorosilane]
41 | 76.00 | CO[Si](C)(OC)c1ccccc1 [Methyl phenyldimethoxysilane]
42 | 8.00 | [SiH3]c1ccccc1 [Phenylsilane]
43 | -1.00 | C[Si](C)(C)[Si](C)(C)C [Hexamethyldisilane]
44 | 50.00 | C[Si](C)(C)O[SiH](O[Si](C)(C)C)O[Si](C)(C)C [Tris(trimethylsiloxy)silane]
45 | 41.00 | C[Si](C)(Cl)CBr [Bromomethyldimethylchlorosilane]
46 | 50.00 | CCC[Si](O[SiH](C)C)(O[SiH](C)C)O[SiH](C)C [Propyltris(dimethylsiloxy)silane]
47 | -28.00 | C[Si](C)(C)C [Tetramethylsilane]
48 | -9.00 | CO[SiH](OC)OC [Trimethoxysilane]

Row | SMILES | flash point [°C]
49 | C=C[Si](OC(C)=O)(OC(C)=O)OC(C)=O [Vinyltriacetoxysilane] | 88.00
50 | C[Si](C)(C)CCOCCl [[2-(chloromethoxy)ethyl]trimethylsilane] | 46.00

remark: another data set of the same source

Row | SMILES | flash point [°C]
51 | C=CC(=O)O [Acrylic acid] | 52.00
52 | CCCCC(CC)CO (stereo not drawn) [2-Ethyl hexanol] | 84.00
53 | NCc1ccccc1 [Benzylamine] | 63.00
54 | COC(=O)OC [Dimethyl carbonate] | 19.00
55 | CC(=O)CC(C)C [Methyl isobutyl ketone] | 23.00
56 | Brc1ccccc1 [Bromobenzene] | 51.00
57 | CCCCCC(=O)CC [Ethyl amyl ketone] | 57.00
58 | Cc1ccccc1N [o-Toluidine] | 85.00
59 | ClCC1CO1 (stereo not drawn) [Epichlorohydrin] | 41.00
60 | NNc1ccccc1 [Phenylhydrazine] | 89.00
61 | C1CCC(NC2CCCCC2)CC1 [Dicyclohexylamine] | 99.00
62 | O=Cc1ccco1 [Furfural] | 60.00
63 | OCC(O)CO [Glycerol] | 160.00
64 | CC(C)CCO[N+](=O)[O-] [iso-Amyl nitrate] | 52.00
65 | CCC(C)=O [Methyl ethyl ketone] | -7.00
66 | NCC(O)c1ccccc1 (stereo not drawn) [Phenylethanolamine] | 152.00
67 | c1ccncc1 [Pyridine] | 20.00
68 | CCCC(=O)Nc1ccccc1 [Ethyl acetanilide] | 52.00
69 | Nc1ccccc1[N+](=O)[O-] [o-Nitroaniline] | 168.00
70 | S=C=S [Carbon disulphide] | -30.00

Row | SMILES | flash point [°C]
71 | COC(=O)c1ccccc1C(=O)OC [Dimethyl phthalate] | 146.00
72 | O=C1CCCCC1 [Cyclohexanone] | 44.00
73 | Cc1ccncc1 [4-Picoline] | 57.00
74 | Oc1cccc(O)c1 [Resorcinol] | 127.00
75 | CC(=O)CC(C)(C)O [Diacetone alcohol] | 64.00
76 | O=C(O)c1ccccc1O [Salicylic acid] | 157.00
77 | Cc1cccc(C)c1 [m-Xylene] | 29.00
78 | COC(=O)C(C)C [Methyl isobutyrate] | 13.00
79 | Cc1ccccn1 [2-Picoline] | 39.00
80 | OCCS [2-Mercaptoethanol] | 74.00
81 | Clc1cc(Cl)c(Cl)cc1Cl [1,2,4,5-Tetrachlorobenzene] | 155.00
82 | OCCCl [Ethylene chlorohydrin] | 60.00
83 | C=C(C)C(=O)OCCCC [Butyl methacrylate] | 52.00
84 | Cc1ccc(O)cc1 [p-Cresol] | 94.00
85 | NCCNCCN [Diethylenetriamine] | 102.00
86 | CC(=O)CC(C)C [Isobutyl methyl ketone] | 17.00
87 | Cc1ccc(N)cc1 [p-Toluidine] | 87.00
88 | C/C=C/C(=O)OCC [Ethyl crotonate] | 2.00
89 | NCCNCCNCCNCCN [Tetraethylenepentamine] | 163.00
90 | CCCCOC(=O)C(=O)OCCCC [Dibutyl oxalate] | 104.00

Row | SMILES | flash point [°C]
91 | Oc1ccccc1 [Phenol] | 79.00
92 | Clc1cccc2ccccc12 [Chloronaphthalene] | 132.00
93 | COc1ccccc1C=O [o-Anisaldehyde] | 118.00
94 | CCCC(C)=O [Methyl-n-Propyl ketone] | 7.00
95 | Cc1ccccc1Br [o-Bromotoluene] | 79.00
96 | CCCCOC(=O)C(O)C(O)C(=O)OCCCC (stereo not drawn) [Dibutyl tartrate] | 91.00
97 | C/C=C/C=O [Crotonaldehyde] | 13.00
98 | Cc1ccc(C)cc1 [p-Xylene] | 27.00
99 | CCCCCC(=O)O [Caproic acid] | 102.00
100 | Oc1ccccc1Cl [o-Chlorophenol] | 64.00
101 | c1ccc2ccccc2c1 [Naphthalene] | 79.00
102 | Oc1ccc(Cl)cc1Cl [2,4-Dichlorophenol] | 114.00
103 | N#Cc1ccccc1 [Benzonitrile] | 85.00
104 | CC(C)c1ccccc1 [Cumene] | 44.00
105 | CCCC(C)OC(C)=O (stereo not drawn) [sec-Amyl acetate] | 32.00
106 | c1ccc2c(c1)CCCC2 [Tetrahydronaphthalene] | 71.00
107 | COC(C)COC(C)CO (stereo not drawn) [Dipropylene glycol methyl ether] | 85.00
108 | c1ccsc1 [Thiophene] | -1.00
